≈ marks a conversion by molar mass, not a printed value. Where two headings read alike, the source gives them in different places.
Columns and labels:
M579-A2-luc = type: cell-based
in vitro [1] = conditions: dog, MDCK
[2] = human, microsomes
MDR1 = assay: in vitro; conditions: dog, MDCK-MDR1
in vivo [3] = conditions: male, CD1, mouse, plasma
physchem = type: physicochemical
SRC (GST-HIS-tag) = SRC (GST-HIS-tag) (Homo sapiens (Human), UniProt P12931); type: biochemical
SIK2 = SIK2 (Homo sapiens (Human), UniProt Q9H0K1); type: biochemical
SIK1 = SIK1 (Homo sapiens (Human), UniProt P57059); type: biochemical
[4] = mouse, microsomes
in vitro [5] = conditions: mouse, microsomes
ABL1 wt = ABL1 wt (Homo sapiens (Human), UniProt P00519); type: biochemical
in vitro [6] = conditions: human, microsomes
SIK3 [7] = target: T1, SIK3 (Homo sapiens (Human), UniProt Q9Y2K2)
SIK3 [8] = target: T1, SIK3; assay: biochemical
in vivo [9] = conditions: CD1, mouse, plasma, oral, 30 mg/kg; read-out: Free concentration (nM) at timepoint after 30 mg/kg po
MC38 cells = assay: cells; conditions: Mus musculus, MC-38, 72 h, read-out: MC38 IC50 (nM at 100 ng/mL TNF)
NFKB activity = conditions: PANC-1 reporter cells, 10 ng/ml rHuTNF
HDAC4 phosphorylation = conditions: PANC-1 cells, 10 ng/mL rHuTNF, 3 h
[10] = humans; prescribing information; cited from earlier work

Chain of ABL1 wt (P00519 118-535 limits assumed): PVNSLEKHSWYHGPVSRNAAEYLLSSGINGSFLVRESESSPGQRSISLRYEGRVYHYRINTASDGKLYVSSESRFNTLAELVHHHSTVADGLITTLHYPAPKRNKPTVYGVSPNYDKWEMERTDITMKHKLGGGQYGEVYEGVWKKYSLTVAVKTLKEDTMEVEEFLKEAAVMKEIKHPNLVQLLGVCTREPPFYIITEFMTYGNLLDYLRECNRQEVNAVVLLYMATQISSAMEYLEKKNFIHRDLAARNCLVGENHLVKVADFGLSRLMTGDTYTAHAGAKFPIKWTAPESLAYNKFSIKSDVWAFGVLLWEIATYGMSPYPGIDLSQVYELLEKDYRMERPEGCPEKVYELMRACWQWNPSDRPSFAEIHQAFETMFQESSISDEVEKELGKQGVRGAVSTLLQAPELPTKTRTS

Cc1nc(Nc2ncc(C(=O)Nc3c(Cl)cccc3Br)s2)cc(N2CCN(CCO)CC2)n1 [Compound B1, N-(2-bromo-6-chlorophenyl)-2-((6-(4-(2-hydroxyethyl)piperazin-l-yl)-2-methylpyrimidin-4-yl)amino)thiazole-5-carboxamide]
cytotoxicity in the presence of TNF (10 ng/mL) compared to inhibitor alone (M579-A2-luc): increased cytotoxicity

Cc1nc(Nc2ncc(C(=O)Nc3c(Cl)ccnc3C)s2)cc(N2CCN(CCO)CC2)n1 [Compound B3, N-(4-chloro-2-methylpyridin-3-yl)-2-((6-(4-(2-hydroxyethyl)piperazin-1-yl)-2-methylpyrimidin-4-yl)amino)thiazole-5-carboxamide]
Papp (in vitro [1]): 20 ×10⁻⁶ cm/s | Intrinsic clearance (L/min/mg) [2]: 24 µL/min/mg | half-life [2]: 58 min | % Remaining at 40 min (%) [2]: 60% | Percentage unbound (%) (human plasma-proteins): 7% | Percentage unbound (%) (murine plasma-proteins): 11% | Papp (MDR1): 20 ×10⁻⁶ cm/s | AUC(0-inf) (in vivo [3]; iv, 1 mg/kg): 0.45 µM·h | AUC(0-t) (in vivo [3]; iv, 1 mg/kg): 0.437 µM·h | Cmax (in vivo [3]; iv, 1 mg/kg): 1230 nM | MRT inf (in vivo [3]; iv, 1 mg/kg): 17.4 min | MRT last (in vivo [3]; iv, 1 mg/kg): 15 min | Tmax (in vivo [3]; iv, 1 mg/kg): 4.98 min | Vd (in vivo [3]; iv, 1 mg/kg): 1.31 L/kg | clearance (in vivo [3]; iv, 1 mg/kg): 75 mL/min/kg | AUC(0-inf) (in vivo [3]; po, 30 mg/kg): 0.687 µM·h | AUC(0-t) (in vivo [3]; po, 30 mg/kg): 0.589 µM·h | Cmax (in vivo [3]; po, 30 mg/kg): 202 nM | Tmax (in vivo [3]; po, 30 mg/kg): 30 min | bioavailability (in vivo [3]; po, 30 mg/kg): 4% | solubility kinetic (physchem): 82 µM (≈ 40.1 µg/mL) | solubility kinetic (physchem; kinetic from dmso stock): 82 µM (≈ 40.1 µg/mL)

COc1c(F)cccc1NC(=O)c1cnc(Nc2cc(N3CCN(CCO)CC3)nc(C)n2)s1 [Compound B4, N-(3-fluoro-2-methoxyphenyl)-2-((6-(4-(2-hydroxyethyl)piperazin-l-yl)-2-methylpyrimidin-4-yl)amino)thiazole-5-carboxamide]
cytotoxicity in the presence of TNF (10 ng/mL) compared to inhibitor alone (M579-A2-luc): fails to exhibit cytotoxicity

CCOc1cccc(Cl)c1NC(=O)c1cnc(Nc2cc(N3CCN(CCO)CC3)nc(C)n2)s1 [Compound B8, N-(2-chloro-6-ethoxyphenyl)-2-((6-(4-(2-hydroxyethyl)piperazin-l-yl)-2-methylpyrimidin-4-yl)amino)thiazole-5-carboxamide]
cytotoxicity in the presence of TNF (10 ng/mL) compared to inhibitor alone (M579-A2-luc): fails to exhibit cytotoxicity

Cc1nc(Nc2ncc(C(=O)Nc3c(C)ccnc3C)s2)cc(N2CCN(CCO)CC2)n1 [Compound C1, N-(2,4-dimethylpyridin-3-yl)-2-((6-(4-(2-hydroxyethyl)piperazin-1-yl)-2-methylpyrimidin-4-yl)amino)thiazole-5-carboxamide]
IC50 (SRC (GST-HIS-tag)): < 1.5 nM

Cc1nc(Nc2ncc(C(=O)Nc3ncccc3C)s2)cc(N2CCN(CCO)CC2)n1 [Compound C2, 2-((6-(4-(2-hydroxyethyl)piperazin-1-yl)-2-methylpyrimidin-4-yl)amino)-N-(3-methylpyridin-2-yl)thiazole-5-carboxamide]
IC50 (SIK2): 427 nM | Intrinsic clearance (L/min/mg) [2]: < 17 µL/min/mg | % Remaining at 40 min (%) [2]: 69% | Percentage unbound (%) (human plasma-proteins): 9% | IC50 (SIK1): 177 nM | Intrinsic clearance (L/min/mg) [4]: 35 µL/min/mg | % Remaining at 40 min (%) [4]: 48% | half-life (in vitro [5]): 40 min | IC50 (SRC (GST-HIS-tag)): < 1.5 nM | IC50 (ABL1 wt): 14.4 nM | half-life (in vitro [6]): > 86 min | Percentage unbound (%) (murine plasma-proteins): 30% | solubility kinetic (physchem): 160 µM (≈ 72.7 µg/mL) | solubility kinetic (physchem; kinetic from dmso stock): 128 to 195 µM (≈ 58.2 to 88.6 µg/mL)

Cc1nc(Nc2ncc(C(=O)Nc3c(C)cncc3Cl)s2)cc(N2CCN(CCO)CC2)n1 [Compound C4, N-(3-chloro-5-methylpyridin-4-yl)-2-((6-(4-(2-hydroxyethyl)piperazin-1-yl)-2-methylpyrimidin-4-yl)amino)thiazole-5-carboxamide]
Intrinsic clearance (L/min/mg) [2]: 115 µL/min/mg | % Remaining at 40 min (%) [2]: 10% | Percentage unbound (%) (human plasma-proteins): 2% | Intrinsic clearance (L/min/mg) [4]: 38 µL/min/mg | % Remaining at 40 min (%) [4]: 45% | IC50 (SRC (GST-HIS-tag)): < 1.5 nM | Percentage unbound (%) (murine plasma-proteins): 14% | solubility kinetic (physchem; kinetic from dmso stock): 128 µM (≈ 62.6 µg/mL)

Cc1nc(Nc2ncc(C(=O)Nc3c(C)cncc3C)s2)cc(N2CCN(CCO)CC2)n1 [Compound C5, N-(3,5-dimethylpyridin-4-yl)-2-((6-(4-(2-hydroxyethyl)piperazin-1-yl)-2-methylpyrimidin-4-yl)amino)thiazole-5-carboxamide]
IC50 (SRC (GST-HIS-tag)): < 1.5 nM

Cc1nc(Nc2ncc(C(=O)Nc3cccnc3C)s2)cc(N2CCN(CCO)CC2)n1 [Compound C6, 2-((6-(4-(2-hydroxyethyl)piperazin-1-yl)-2-methylpyrimidin-4-yl)amino)-N-(2-methylpyridin-3-yl)thiazole-5-carboxamide]
IC50 (SRC (GST-HIS-tag)): < 1.5 nM

Cc1nc(Nc2ncc(C(=O)Nc3c(C)nn(C)c3C)s2)cc(N2CCN(CCO)CC2)n1 [Compound C8, 2-((6-(4-(2-hydroxyethyl)piperazin-1-yl)-2-methylpyrimidin-4-yl)amino)-N-(1,3,5-trimethyl-1H-pyrazol-4-yl)thiazole-5-carboxamide]
Intrinsic clearance (L/min/mg) [2]: < 14 µL/min/mg | % Remaining at 40 min (%) [2]: 81% | Percentage unbound (%) (human plasma-proteins): 5% | Intrinsic clearance (L/min/mg) [4]: < 14 µL/min/mg | % Remaining at 40 min (%) [4]: 86% | Percentage unbound (%) (murine plasma-proteins): 62% | solubility kinetic (physchem; kinetic from dmso stock): 128 to 195 µM (≈ 60.4 to 92 µg/mL)

Cc1nc(Nc2ncc(C(=O)Nc3c(C)noc3C)s2)cc(N2CCN(CCO)CC2)n1 [Compound C9]
IC50 (SIK3 [7]): 800 nM | IC50 (SIK2): 232 nM | Intrinsic clearance (L/min/mg) [2]: < 14 µL/min/mg | % Remaining at 40 min (%) [2]: 89% | Percentage unbound (%) (human plasma-proteins): 6% | IC50 (SIK1): 169 nM | Intrinsic clearance (L/min/mg) [4]: < 14 µL/min/mg | % Remaining at 40 min (%) [4]: 83% | half-life (in vitro [5]): > 100 min | IC50 (SRC (GST-HIS-tag)): 6.44 nM | IC50 (ABL1 wt): 27.4 nM | half-life (in vitro [6]): > 100 min | Percentage unbound (%) (murine plasma-proteins): 44% | solubility kinetic (physchem): 174 µM (≈ 79.8 µg/mL) | solubility kinetic (physchem; kinetic from dmso stock): 128 to 195 µM (≈ 58.7 to 89.4 µg/mL)

Cc1nc(Nc2ncc(C(=O)Nc3c(Cl)ccnc3C)s2)cc(N2CCN(C)CC2)n1 [Compound C10]
IC50 (SIK3 [7]): 493 nM | IC50 (SIK2): 138 nM | IC50 (SRC (GST-HIS-tag)): < 1.5 nM | IC50 (ABL1 wt): 4.3 nM

Cc1nc(NCCO)cc(Nc2ncc(C(=O)Nc3c(Cl)ccnc3C)s2)n1 [Compound C11, N-(4-chloro-2-methylpyridin-3-yl)-2-((6-((2-hydroxyethyl)amino)-2-methylpyrimidin-4-yl)amino)thiazole-5-carboxamide]
IC50 (SRC (GST-HIS-tag)): < 1.5 nM

Cc1nc(Nc2ncc(C(=O)Nc3c(Cl)csc3C)s2)cc(N2CCN(CCO)CC2)n1 [Compound D1, N-(4-chloro-2-methylthiophen-3-yl)-2-((6-(4-(2-hydroxyethyl)piperazin-1-y1)-2-methylpyrimidin-4-yl)amino)thiazole-5-carboxamidexs]
IC50 (SIK3 [8]): 40 to 45 nM | concentration at 2 h (in vivo [9]): 80 nM | concentration at 6 h (in vivo [9]): 4 nM | concentration at 12 h (in vivo [9]): 2.14 nM | IC50 (MC38 cells): < 200 nM

Cc1nc(Nc2ncc(C(=O)Nc3c(Cl)csc3Cl)s2)cc(N2CCN(CCO)CC2)n1 [Compound D7, N-(2,4-dichlorothiophen-3-yl)-2-((6-(4-(2-hydroxyethyl)piperazin-1-yl)-2-methylpyrimidin-4-yl)amino)thiazole-5-carboxamide]
IC50 (SIK3 [8]): 15 to 20 nM | concentration at 2 h (in vivo [9]): 43 nM | concentration at 6 h (in vivo [9]): 5 nM | concentration at 12 h (in vivo [9]): 1.1 nM | IC50 (MC38 cells): < 200 nM

CC(=O)N1CCN(c2cc(Nc3ncc(C(=O)Nc4c(C)csc4Cl)s3)nc(C)n2)CC1 [Compound D8, 2-((6-(4-acetylpiperazin-1-yl)-2-methylpyrimidin-4-yl)amino)-N-(2-chloro-4-methylthiophen-3-yl)thiazole-5-carboxamide]
IC50 (SIK3 [7]): ~150 nM | IC50 (MC38 cells): > 200 nM

Cc1nc(Nc2ncc(C(=O)Nc3c(C)csc3Cl)s2)cc(N2CCN(C)CC2)n1 [Compound D9, N-(2-chloro-4-methylthiophen-3-yl)-2-((2-methyl-6-(4-methylpiperazin-1-yl)pyrimidin-4-yl)amino)thiazole-5-carboxamide]
Inhibition of NFKB activity (NFKB activity): + | IC50 (SIK3 [7]): ~60 nM | Inhibition of HDAC4 phosphorylation (HDAC4 phosphorylation): + | concentration at 2 h (in vivo [9]): 44 nM | concentration at 6 h (in vivo [9]): 8 nM | concentration at 12 h (in vivo [9]): 2.71 nM | IC50 (MC38 cells): < 100 nM

Cc1cn(-c2cc(NC(=O)c3ccc(C)c(Nc4nccc(-c5cccnc5)n4)c3)cc(C(F)(F)F)c2)cn1 [nilotinib]
terminal / elimination half-life [10]: approximately 17 hours
